Counter-ions that a name gives are not always drawn.
Legend:
[1] = target: T1, human B1R (bradykinin receptor 1) (Homo sapiens, UniProt P46663); experiment: FLIPR Ca2+ assay (Fluo-4) on CHO K1 cells stably transfected with the human B1R gene (hB1R cells): % inhibition at 10 μM / IC50, agonist Lys-Des-Arg9-bradykinin; format: cell-based; conditions: CHO-K1, human B1R
T1 construct: expressed in transfected cells; host or cells: CHO K1 cells
T1 sequence (P46663 1-353): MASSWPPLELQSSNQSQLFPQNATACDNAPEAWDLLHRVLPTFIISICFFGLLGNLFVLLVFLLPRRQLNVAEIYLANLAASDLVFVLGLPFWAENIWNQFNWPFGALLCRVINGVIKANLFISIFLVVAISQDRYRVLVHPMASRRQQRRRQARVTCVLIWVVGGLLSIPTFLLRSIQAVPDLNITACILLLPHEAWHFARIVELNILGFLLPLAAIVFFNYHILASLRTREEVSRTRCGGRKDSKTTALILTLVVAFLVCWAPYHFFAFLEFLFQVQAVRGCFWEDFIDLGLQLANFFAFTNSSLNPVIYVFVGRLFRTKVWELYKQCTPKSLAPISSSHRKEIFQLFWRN
Summary of the method: (§1)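 Antagonism is measured as the drop in peak Fluo-4 Ca2+ signal when the EC80 agonist follows 10–20 min compound exposure. The single-point screen uses 10 μM; IC50 uses several concentrations. Values are given as % of maximal achievable inhibition.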

[2] = target: T2, rat B1R (bradykinin receptor 1) (Rattus norvegicus, UniProt P97583); experiment: FLIPR Ca2+ assay (Fluo-4) on CHO K1 cells stably transfected with the B1R gene of the rat (rB1R cells): % inhibition at 10 μM / IC50, agonist Des-Arg9-bradykinin; format: cell-based; conditions: CHO-K1, rat B1R
T2 construct: expressed in transfected cells; host or cells: CHO K1 cells
T2 sequence (P97583 1-337): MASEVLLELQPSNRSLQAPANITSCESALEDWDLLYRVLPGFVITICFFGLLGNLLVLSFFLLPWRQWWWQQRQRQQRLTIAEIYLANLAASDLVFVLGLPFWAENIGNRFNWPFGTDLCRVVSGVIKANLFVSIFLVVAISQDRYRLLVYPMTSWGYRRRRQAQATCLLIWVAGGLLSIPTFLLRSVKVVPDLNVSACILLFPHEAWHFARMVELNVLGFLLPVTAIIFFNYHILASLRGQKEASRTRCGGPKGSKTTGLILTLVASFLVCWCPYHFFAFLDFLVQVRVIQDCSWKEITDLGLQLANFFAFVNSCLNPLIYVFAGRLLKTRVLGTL
Summary of the method: as §1

For `Cc1cc2c(cc1C(=O)N1CCC3(CCN(c4ccncc4)CC3)C1)[C@H](NC(=O)c1ccccc1Cl)CC2` [Example H-93, 2-Chloro-N-[(1R)-5-methyl-6-(8-pyridin-4-yl-3,8-diazaspiro[4.5]decane-3-carbonyl)-2,3-dihydro-1H-inden-1-yl]-benzamide], the inhibition at 10 µM [1] was 100% and the inhibition at 10 µM [2] was 103%.
In the case of `O=C(N[C@@H]1CCc2ccc(C(=O)N3CCC4(CCN(c5ccncc5)CC4)C3)cc21)c1cccc(Cl)c1Cl` [Example H-94, 2,3-Dichloro-N-[(1R)-6-(8-pyridin-4-yl-3,8-diazaspiro[4.5]decane-3-carbonyl)-2,3-dihydro-1H-inden-1-yl]-benzamide], the inhibition at 10 µM [1] is reported as 100% and the inhibition at 10 µM [2] is reported as 98%.
Molecule `O=C(N[C@@H]1CCc2ccc(C(=O)N3CCC4(CC3)CCN(c3ccncc3)CC4)cc21)c1cccc(Cl)c1Cl` [Example H-95, 2,3-Dichloro-N-[(1R)-6-(9-pyridin-4-yl-3,9-diazaspiro[5.5]undecane-3-carbonyl)-2,3-dihydro-1H-inden-1-yl]-benzamide] has an inhibition at 10 µM [1] of 100% and an inhibition at 10 µM [2] of 98%.
For `O=C(c1ccc2c(c1)[C@H](N1Cc3cccc(Cl)c3C1=O)CC2)N1CCC2(CCN(c3ccncc3)CC2)C1` [Example H-96, 7-Chloro-2-[(1R)-6-(8-pyridin-4-yl-3,8-diazaspiro[4.5]decane-3-carbonyl)-2,3-dihydro-1H-inden-1-yl]-2,3-dihydro-isoindol-1-one], the inhibition at 10 µM [1] was 100% and the inhibition at 10 µM [2] was 104%.
With `O=C(N[C@@H]1CCc2ccc(C(=O)N3CCC4(CCC(C(=O)N5CCn6ncnc6C5)CC4)CC3)cc21)c1ccccc1Cl` [Example H-97, 2-Chloro-N-[(1R)-6-[9-(5,6,7,8-tetrahydro-[1,2,4]triazolo[1,5-a]pyrazine-7-carbonyl)-3-azaspiro[5.5]undecane-3-carbonyl]-2,3-dihydro-1H-inden-1-yl]-benzamide] the inhibition at 10 µM [1] was 6% and the inhibition at 10 µM [2] was 90%.
In the case of `O=C(N[C@@H]1CCc2ccc(C(=O)N3CCC4(CCN(c5ccncc5)CC4)C3)cc21)c1cc(Cl)ccc1Cl` [Example H-98, 2,5-Dichloro-N-[(1R)-6-(8-pyridin-4-yl-3,8-diazaspiro[4.5]decane-3-carbonyl)-2,3-dihydro-1H-inden-1-yl]-benzamide], the inhibition at 10 µM [1] is reported as 100% and the inhibition at 10 µM [2] is reported as 108%.
In the case of `O=C(N[C@@H]1CCc2ccc(C(=O)N3CCC4(CCN(c5ccncc5)CC4)C3)cc21)c1c(Cl)cccc1Cl` [Example H-99, 2,6-Dichloro-N-[(1R)-6-(8-pyridin-4-yl-3,8-diazaspiro[4.5]decane-3-carbonyl)-2,3-dihydro-1H-inden-1-yl]-benzamide], the inhibition at 10 µM [1] is reported as 100% and the inhibition at 10 µM [2] is reported as 105%.
`O=C(N[C@@H]1CCc2ccc(C(=O)N3CCC4(CC3)CCN(c3ccncc3)CC4)cc21)c1c(Cl)cccc1Cl` [Example H-100, 2,6-Dichloro-N-[(1R)-6-(9-pyridin-4-yl-3,9-diazaspiro[5.5]undecane-3-carbonyl)-2,3-dihydro-1H-inden-1-yl]-benzamide] was tested, and the inhibition at 10 µM [1] was 100% and the inhibition at 10 µM [2] was 108%.
Work on `O=C(N[C@@H]1CCc2ccc(C(=O)N3CCC4(CCN(c5ccncc5)CC4)C3)cc21)c1ccccc1F` [Example H-101, 2-Fluoro-N-[(1R)-6-(8-pyridin-4-yl-3,8-diazaspiro[4.5]decane-3-carbonyl)-2,3-dihydro-1H-inden-1-yl]-benzamide] yielded an inhibition at 10 µM [1] of 97% and an inhibition at 10 µM [2] of 107%.
For `O=C(N[C@@H]1CCc2ccc(C(=O)N3CCC4(CC3)CCN(c3ccncc3)CC4)cc21)c1ccccc1F` [Example H-102, 2-Fluoro-N-[(1R)-6-(9-pyridin-4-yl-3,9-diazaspiro[5.5]undecane-3-carbonyl)-2,3-dihydro-1H-inden-1-yl]-benzamide], the inhibition at 10 µM [1] was 100% and the inhibition at 10 µM [2] was 109%.
Molecule `COc1cc(C)c(C(=O)N[C@@H]2CCc3ccc(C(=O)N4CCC5(CCN(c6ccncc6)CC5)C4)cc32)cc1C` [Example H-103, 4-Methoxy-2,5-dimethyl-N-[(1R)-6-(8-pyridin-4-yl-3,8-diazaspiro[4.5]decane-3-carbonyl)-2,3-dihydro-1H-inden-1-yl]-benzamide] has an inhibition at 10 µM [1] of 99% and an inhibition at 10 µM [2] of 106%.
`Cc1cccc(C)c1C(=O)N[C@@H]1CCc2ccc(C(=O)N3CCC4(CCN(c5ccncc5)CC4)C3)cc21` [Example H-104, 2,6-Dimethyl-N-[(1R)-6-(8-pyridin-4-yl-3,8-diazaspiro[4.5]decane-3-carbonyl)-2,3-dihydro-1H-inden-1-yl]-benzamide] was tested, and the inhibition at 10 µM [1] was 101% and the inhibition at 10 µM [2] was 109%.
`O=C(c1ccc2c(c1)[C@H](NS(=O)(=O)c1ccccc1Cl)CC2)N1CCC2(CCN(c3ccncc3)CC2)C1` [Example H-105, 2-Chloro-N-[(1R)-6-(8-pyridin-4-y-3,8-diazaspiro[4.5]decane-3-carbonyl)-2,3-dihydro-1H-inden-1-yl]-benzenesulfonic acid amide] was tested, and the inhibition at 10 µM [1] was 100% and the inhibition at 10 µM [2] was 107%.
`O=C(c1ccc2c(c1)[C@H](NS(=O)(=O)c1ccccc1Cl)CCC2)N1CCC2(CCN(c3ccncc3)CC2)C1` [Example H-106, 2-Chloro-N-[(1R)-7-(8-pyridin-4-yl-3,8-diazaspiro[4.5]decane-3-carbonyl)-1,2,3,4-tetrahydro-naphthalen-1-yl]-benzenesulfonic acid amide] showed an inhibition at 10 µM [1] of 100% and an inhibition at 10 µM [2] of 105%.
Molecule `O=C(N[C@@H]1CCOc2cc(C(F)(F)F)c(C(=O)N3CCC4(CCN(c5ccncc5)CC4)C3)cc21)c1ccccc1Cl` [Example H-107, 2-Chloro-N-[(4R)-6-(8-pyridin-4-yl-3,8-diazaspiro[4.5]decane-3-carbonyl)-7-(trifluoromethyl)-3,4-dihydro-2H-chromen-4-yl]-benzamide] has an inhibition at 10 µM [1] of 72% and an inhibition at 10 µM [2] of 108%.
For `COc1ccc(C(=O)N[C@@H]2CCc3ccc(C(=O)N4CCC5(CCN(c6ccncc6)CC5)C4)cc32)c(F)c1` [Example H-108, 2-Fluoro-4-methoxy-N-[(1R)-6-(8-pyridin-4-yl-3,8-diazaspiro[4.5]decane-3-carbonyl)-2,3-dihydro-1H-inden-1-yl]-benzamide], the inhibition at 10 µM [1] was 100% and the inhibition at 10 µM [2] was 111%.
`O=C(N[C@@H]1CCc2ccc(C(=O)N3CCC4(CCN(c5ccncc5)CC4)C3)cc21)c1c(F)cccc1Cl` [Example H-109, 2-Chloro-6-fluoro-N-[(1R)-6-(8-pyridin-4-yl-3,8-diazaspiro[4.5]decane-3-carbonyl)-2,3-dihydro-1H-inden-1-yl]-benzamide] showed an inhibition at 10 µM [1] of 100% and an inhibition at 10 µM [2] of 109%.
Work on `O=C(N[C@@H]1CCc2ccc(C(=O)N3CCC4(CCN(c5ccncc5)CC4)C3)cc21)c1c(F)cccc1C(F)(F)F` [Example H-110, 2-Fluoro-N-[(1R)-6-(8-pyridin-4-yl-3,8-diazaspiro[4.5]decane-3-carbonyl)-2,3-dihydro-1H-inden-1-yl]-6-(trifluoromethyl)-benzamide] yielded an inhibition at 10 µM [1] of 101% and an inhibition at 10 µM [2] of 108%.
In the case of `Cc1cc(N2CCC3(CCN(C(=O)c4ccc5c(c4)[C@H](NC(=O)c4ccccc4Cl)CC5)C3)CC2)cc(C)n1` [Example H-111, 2-Chloro-N-[(1R)-6-[8-(2,6-dimethyl-pyridin-4-yl)-3,8-diazaspiro[4.5]decane-3-carbonyl]-2,3-dihydro-1H-inden-1-yl]-benzamide hydrochloride], the inhibition at 10 µM [1] is reported as 100% and the inhibition at 10 µM [2] is reported as 102%.
In the case of `Cc1cc(N2CCC3(CCN(C(=O)c4ccc5c(c4)[C@H](NC(=O)c4ccccc4Cl)CC5)C3)CC2)ccn1` [Example H-112, 2-Chloro-N-[(1R)-6-[8-(2-methyl-pyridin-4-yl)-3,8-diazaspiro[4.5]decane-3-carbonyl]-2,3-dihydro-1H-inden-1-yl]-benzamide], the inhibition at 10 µM [1] is reported as 100% and the inhibition at 10 µM [2] is reported as 102%.
Work on `O=C(c1ccc2c(c1)[C@H](NS(=O)(=O)c1cccc(Cl)c1Cl)CC2)N1CCC2(CCN(c3ccncc3)CC2)C1` [Example H-113, 2,3-Dichloro-N-[(1R)-6-(8-pyridin-4-yl-3,8-diazaspiro[4.5]decane-3-carbonyl)-2,3-dihydro-1H-inden-1-yl]-benzenesulfonic acid amide] yielded an inhibition at 10 µM [1] of 99% and an inhibition at 10 µM [2] of 92%.
With `Cc1ncccc1C(=O)N[C@@H]1CCc2ccc(C(=O)N3CCC4(CCN(c5ccncc5)CC4)C3)cc21` [Example H-114, 2-Methyl-N-[(1R)-6-(8-pyridin-4-yl-3,8-diazaspiro[4.5]decane-3-carbonyl)-2,3-dihydro-1H-inden-1-yl]-pyridine-3-carboxylic acid amide] the inhibition at 10 µM [1] was 100% and the inhibition at 10 µM [2] was 102%.
Work on `O=C(N[C@@H]1CCc2ccc(C(=O)N3CCC4(CCN(c5ccncc5)CC4)C3)cc21)c1cnccc1C(F)(F)F` [Example H-115, N-[(1R)-6-(8-Pyridin-4-yl-3,8-diazaspiro[4.5]decane-3-carbonyl)-2,3-dihydro-1H-inden-1-yl]-4-(trifluoromethyl)-pyridine-3-carboxylic acid amide] yielded an inhibition at 10 µM [1] of 100% and an inhibition at 10 µM [2] of 101%.

Source: patent US8455475B2 (Gruenenthal GmbH, priority 2009, dated 2013)
